From patent US20130059876A1, “LIQUID NASAL SPRAY CONTAINING LOW-DOSE NALTREXONE” (L Molteni & C Dei Fratelli Alitti Societa Di Esercizio S.p.A, priority 2010, published 2013)
Where “and” joins values, the source holds several entries; their conditions need not be identical. Equal values may be shown once.

Tests used:
[1] = test system: Oncologic patients receiving therapy with morphine orally; assay: Clinical study: naltrexone in oncologic patients receiving therapy with morphine orally; type: in vivo; conditions: individual patient, ½ hour before oral morphine (average 40 mg +/- 10 mg)
[2] = test system: Spine patients undergoing therapy with morphine by the spinal route; assay: Clinical study: naltrexone in spine patients undergoing therapy with morphine by the spinal route; type: in vivo; conditions: individual patient, ½ hour before epidural load, spinal morphine (average 4.8 mg +/- 0.4 mg)
patients = patients (total number 80) before treatment with Naltrexone
[3] = naltrexone 0.125 mcg every 12 hours
[4] = naltrexone 2.5 mcg every 12 hours
[5] = naltrexone 5 mcg every 12 hours
[6] = naltrexone 1 mcg every 12 hours

## O=C1CC[C@@]2(O)[C@H]3Cc4ccc(O)c5c4[C@@]2(CCN3CC2CC2)[C@H]1O5 [Naltrexone, naltrexone]
[1]; naltrexone 1 mg every 12 hours
  Analgesia (%): analgesic efficacy after administration of naltrexone: 100% (8×) and 90% (2×) and 65% (2×) and 60% (2×) and 70% (3×) and 65%** (3×) and 55% and 75%** and 70%** and 85% (2×) and 45%** and 45%
  Benefit (%): percentage reduction of adverse effects: 90% (3×) and 65% (8×) and 40% (2×) and 70% (4×) and 100% (3×) and 75% and 95% and 0% and 55% and 50% and 80% (2×)
[1]; [3]
  Analgesia (%): analgesic efficacy after administration of naltrexone: 45% (2×) and 55%** and 65%** and 60%
  Benefit (%): percentage reduction of adverse effects: 65% (3×) and 40% and 100%
[1]; naltrexone 0.125 mcg/day
  Analgesia (%): analgesic efficacy after administration of naltrexone: 60%
  Benefit (%): percentage reduction of adverse effects: 100%
[1]; [4]
  Analgesia (%): analgesic efficacy after administration of naltrexone: 0% and 45% (7×) and 55% (2×) and 60%** and 100% (2×) and 70% and 60% (3×) and 40%
  Benefit (%): percentage reduction of adverse effects: 100% and 80% (5×) and 70% and 50% (3×) and 65% (2×) and 40% and 60% (2×) and 25% and 55% and 90%
[1]; naltrexone 2.5 mcg/day
  Analgesia (%): analgesic efficacy after administration of naltrexone: 60%
  Benefit (%): percentage reduction of adverse effects: 90%
[1]; [5]
  Analgesia (%): analgesic efficacy after administration of naltrexone: 45% (2×) and 55% (5×) and 70% and 100% (3×) and 90% (3×) and 60% (3×) and 65% and 60%** (2×) and 65%** and 55%** and 70%**
  Benefit (%): percentage reduction of adverse effects: 60% (4×) and 0% and 70% and 50% (3×) and 45% (4×) and 85% (2×) and 55% (2×) and 35% and 40% (2×) and 65% and 100% (2×)
[2]; naltrexone 1 mg every 12 hours
  Analgesia (%): analgesic efficacy after administration of naltrexone: 95% and 60% and 65%
  Benefit (%): percentage reduction of adverse effects: 65% (2×) and 50%
[2]; [6]
  Analgesia (%): analgesic efficacy after administration of naltrexone: 65% and 45% (2×)
  Benefit (%): percentage reduction of adverse effects: 65% and 70% and 100%
[2]; [4]
  Analgesia (%): analgesic efficacy after administration of naltrexone: 45% (2×) and 75% and 60% and 55% (2×) and 90% and 0% and 100% (3×) and 85%
  Benefit (%): percentage reduction of adverse effects: 45% (2×) and 80% (4×) and 60% (3×) and 100% (2×) and 95%
[2]; [5]
  Analgesia (%): analgesic efficacy after administration of naltrexone: 45% and 100% and 60% (3×) and 35% and 85% and 15%
  Benefit (%): percentage reduction of adverse effects: 70% (2×) and 95% and 50% (3×) and 65% and 30%

## CN1CC[C@]23c4c5ccc(O)c4O[C@H]2[C@@H](O)C=C[C@H]3[C@H]1C5 [morphine]
patients
  Incidence of adverse effects from morphine: Asthenia: 43.3%
  Incidence of adverse effects from morphine: Constipation: 70%
  Incidence of adverse effects from morphine: Dizziness: 13.3%
  Incidence of adverse effects from morphine: Drowsiness: 30%
  Incidence of adverse effects from morphine: Headache: 6.7%
  Incidence of adverse effects from morphine: Inappetence: 46.7%
  Incidence of adverse effects from morphine: Nausea: 53.3%
  Incidence of adverse effects from morphine: Pruritus: 30%
  Incidence of adverse effects from morphine: Vomiting: 53.3%
